Reference: ChEMBL document CHEMBL1938256, “Synthesis and DNA cleavage studies of novel quinoline oxime esters” (Bioorg Med Chem Lett, 2012)
Active and inactive are the calls of the source. The calls are words filed in the database; no cut-off is given here.

Legend:
Assay type in all cases: nucleic-acid assay
Nucleic Acid [1] = test: Induction of UV light-induced Escherichia coli pUC19 DNA cleavage assessed as conversion of supercoiled DNA into nicked form at 80 uM by neutral agarose gel electrophoresis
Nucleic Acid [2] = test: Induction of UV light-induced Escherichia coli pUC19 DNA cleavage assessed as conversion of supercoiled DNA into linear form at 80 uM by neutral agarose gel electrophoresis
Nucleic Acid [3] = test: Induction of Escherichia coli pUC19 DNA cleavage assessed as conversion of supercoiled DNA into nicked circular form at 40 to 80 uM by neutral agarose gel electrophoresis in presence of UV light

Which results are given for `O=C(O/N=C/c1cc2ccccc2nc1Cl)c1ccc(Br)cc1`?
Activity (Nucleic Acid [1]): Active; Activity (Nucleic Acid [2]): Active; Activity (Nucleic Acid [3]): Active

What does the source list for `O=C(O/N=C/c1cc2ccccc2nc1Cl)c1ccc(Cl)cc1`?
Activity (Nucleic Acid [1]): Active; Activity (Nucleic Acid [2]): Active; Activity (Nucleic Acid [3]): Active

What does the source list for `O=C(O/N=C/c1cc2ccccc2nc1Cl)c1ccccc1`?
Activity (Nucleic Acid [1]): inactive; Activity (Nucleic Acid [2]): inactive; Activity (Nucleic Acid [3]): Active

`COc1ccc(C(=O)O/N=C/c2cc3ccccc3nc2Cl)cc1` was tested. Which Activity (Nucleic Acid [1]) did it give?
The Activity was “inactive”.

What about the Activity (Nucleic Acid [2]) of the same compound?
Its Activity is “inactive”.

And the Activity (Nucleic Acid [3])?
The Activity was “Active”.

What does the source list for `O=C(O/N=C/c1cc2ccccc2nc1Cl)c1ccccc1F`?
Activity (Nucleic Acid [1]): Active; Activity (Nucleic Acid [2]): Active; Activity (Nucleic Acid [3]): Active

Which results are given for `O=C(O/N=C/c1cc2ccccc2nc1Cl)c1ccc([N+](=O)[O-])cc1`?
Activity (Nucleic Acid [1]): Active; Activity (Nucleic Acid [2]): Active; Activity (Nucleic Acid [3]): Active

How did the Activity (Nucleic Acid [1]) turn out when `O=C(O/N=C/c1cc2ccccc2nc1Cl)c1cc([N+](=O)[O-])cc([N+](=O)[O-])c1` was run?
Its Activity is “Active”.

What about the Activity (Nucleic Acid [2]) of the same compound?
The Activity was “Active”.

What about the Activity (Nucleic Acid [3]) of the same compound?
Its Activity is “Active”.

For `O=C(O/N=C/c1cc2ccccc2nc1Cl)c1ccc(F)cc1`, which Activity (Nucleic Acid [1]) is on record?
The Activity was “Active”.

And the Activity (Nucleic Acid [2])?
The Activity was “Active”.

What about the Activity (Nucleic Acid [3]) of the same compound?
Its Activity is “Active”.

Which Activity (Nucleic Acid [1]) does the source give for `O=C(O/N=C/c1cc2ccccc2nc1Cl)c1ccc(O)cc1` here?
Its Activity is “inactive”.

And the Activity (Nucleic Acid [2])?
The Activity was “inactive”.

What about the Activity (Nucleic Acid [3]) of the same compound?
The Activity was “Active”.
